Assay results taken from publication PMC10145531, “Platinum(IV)-Loaded Degraded Glycol Chitosan as Efficient Platinum(IV) Drug Delivery Platform” (Pharmaceutics, 2023).
Like-named read-outs stand apart in the source and are kept apart here.

How the values were obtained:
[1] = system: SW480 (colon adenocarcinoma); assay: MTT cytotoxicity assay, SW480 cells (96 h); assay type: cell-based, human
Method: (§1) Cell culture of the cell lines CH1/PA-1, SW480 and A549 was performed as described in reference. 4T1 cells were purchased from American Type Culture Collection, stored in a liquid nitrogen dewar and cultured in Roswell Park Memorial Institute (RPMI)-1640 medium supplemented with 10% foetal bovine serum (FBS) (Thermo Fisher, Waltham, MA, USA).
(§2) Cytotoxicity tests (96 h incubation) in the cell lines CH1/PA-1, SW480 and A549 were conducted as described in reference. Compounds were dissolved in supplemented minimum essential medium (MEM), except for compound C10, which was dissolved in sterile Milli-Q water.
(§3) Based on the required solubility, conjugates C1–C12 were forwarded for cytotoxicity assessments, whereas conjugates S1–S5 could not be tested due to solubility issues (Supporting Information, Table S1). The twelve substances C1–C12 were examined in comparison to the free platinum(IV) complexes and the unloaded dGC polymers with three different chain lengths for their cytotoxic activity in vitro. For this purpose, the colorimetric MTT assay was used in three human cancer cell lines (A549 (non-small-cell lung carcinoma), CH1/PA-1 (ovarian teratocarcinoma) and SW480 (colon adenocarcinoma)), yielding IC50 values in the low micromolar to nanomolar concentration range for all conjugates (Table 3, Supporting Information, Figures S18–S20). The three tested cell lines differ in their platinum sensitivity. SW480 and A549 cells are intrinsically cisplatin- and carboplatin-resistant due to their low expression of CTR1, whereas CH1/PA-1 cells show high chemosensitivity, particularly to platinum drugs.

[2] = system: A549 (non-small-cell lung carcinoma); assay: MTT cytotoxicity assay, A549 cells (96 h); assay type: cell-based, human
Method: as §1, §2, §3

[3] = system: CH1/PA-1 (ovarian teratocarcinoma); assay: MTT cytotoxicity assay, CH1/PA-1 cells (96 h); assay type: cell-based, human
Method: as §1, §2, §3

[4] = system: SW480 (colon adenocarcinoma); parameters: method as in PMID 36432656; conditions: MTT, 96 h; cited from earlier work
[5] = system: A549 (non-small-cell lung carcinoma); parameters: method as in PMID 36432656; conditions: MTT, 96 h; cited from earlier work
[6] = system: CH1/PA-1 (ovarian teratocarcinoma); parameters: method as in PMID 36432656; conditions: MTT, 96 h; cited from earlier work
[7] = Biodistribution study (platinum content of organs by ICP-MS) in non-tumour-bearing mice; assay type: in vivo, Balb/C mice
Method: The Animal Welfare and Ethical Review Body at University College London (UCL) authorised all animal experiments, which were performed under license from the Home Office, UK. […] All substances were applied intravenously (100 µL stock/20 g body weight) via tail vein injection. At the chosen time points, animals were culled with CO2, and the major organs (lung, heart, liver, spleen and kidneys) were collected and frozen in liquid nitrogen. The samples were transferred to the Institute of Inorganic Chemistry, University of Vienna, Austria, where the total platinum content of each sample was determined with an Agilent 7500 ICP-quadrupole MS instrument.
The major organs of liver, lung, heart, kidney and spleen were collected after two specific time points (1 h and 24 h), and the platinum content of each organ was evaluated with ICP-MS analysis (Figure 3).

[8] = MTT, 96 h incubation, read-out: IC50 [µM] SW480
[9] = free platinum(IV) complexes: equals measured IC50 of Table 3, read-out: Concentration of Pt(IV) Units at IC50 [µM] SW480
[10] = MTT, 96 h incubation, read-out: IC50 [µM] A549
[11] = free platinum(IV) complexes: equals measured IC50 of Table 3, read-out: Concentration of Pt(IV) Units at IC50 [µM] A549
[12] = MTT, 96 h incubation, read-out: IC50 [µM] CH1/PA-1
[13] = free platinum(IV) complexes: equals measured IC50 of Table 3, read-out: Concentration of Pt(IV) Units at IC50 [µM] CH1/PA-1

Q: What does the source list for “(OC-6-44)-Acetatodiammine(3-carboxypropanoato)dichloridoplatinum(IV) [compound 2]”?
A: IC50 [1, 8]: 47 ± 10 µM; IC50 [1, 9]: 47 ± 10 µM; IC50 [2, 10]: 99 ± 17 µM; IC50 [2, 11]: 99 ± 17 µM; IC50 [3, 12]: 1.2 ± 0.5 µM; IC50 [3, 13]: 1.2 ± 0.5 µM

Q: Which results are given for `O=C1[O][Pt]2([NH][C@@H]3CCCC[C@H]3[NH]2)[O]C1=O` [Oxaliplatin, oxaliplatin]?
A: IC50 [4]: 0.29 ± 0.05 µM; IC50 [5]: 0.98 ± 0.21 µM; IC50 [6]: 0.18 ± 0.01 µM

Q: For `N.N.O=C([O-])C1(C(=O)[O-])CCC1.[Pt+2]` [Carboplatin, carboplatin], which IC50 [4] is on record?
A: 42 ± 10 µM

Q: And the IC50 [5]?
A: 38 ± 3 µM

Q: And the IC50 [6]?
A: 0.79 ± 0.11 µM

Q: Which IC50 [1, 8] does the source give for “(OC-6-44)-Acetaodiammine(3-carboxypropanoato)(cyclobutane-1,1-dicarboxylato)platinum(IV) [compound 4]” here?
A: > 200 µM

Q: And the IC50 [1, 9]?
A: > 200 µM

Q: And the IC50 [2, 10]?
A: > 200 µM

Q: And the IC50 [2, 11]?
A: > 200 µM

Q: And the IC50 [3, 12]?
A: 16 ± 6 µM

Q: And the IC50 [3, 13]?
A: 16 ± 6 µM

Q: For `N.N.[Cl][Pt][Cl]` [Cisplatin, cisplatin], which IC50 [4] is on record?
A: 2.3 ± 0.2 µM

Q: What about the IC50 [5] of the same compound?
A: 3.8 ± 1 µM

Q: And the IC50 [6]?
A: 0.073 ± 0.001 µM

Q: What does the source list for “(OC-6-44)-Acetato(3-carboxypropanoato)(1R,2R-cyclohexane-1,2-diamine)oxalatoplatinum(IV) [compound 6]”?
A: IC50 [1, 8]: 22 ± 8 µM; IC50 [2, 10]: 70 ± 29 µM; IC50 [3, 12]: 4.1 ± 0.6 µM; IC50 [3, 13]: 4.1 ± 0.6 µM; organ distribution of platinum (ICP-MS) ([7]; 1 h post i.v. administration, 6: 0.15 mg/100 µL, V3: 0.41 mg/100 µL): highest concentrations in the excretory organs (kidney and liver); change of platinum amount in organs at 24 h vs 1 h ([7]; 24 h post i.v. injection, 6: 0.15 mg/100 µL, V3: 0.41 mg/100 µL): only slightly raised in all systemic organs; increase of platinum amount in the kidneys after 24 h vs 1 h ([7]; i.v., 0.15 mg/100 µL (5.5 mg/kg oxaliplatin equivalent), female Balb/C mice): 2.1 fold; tolerability in mice ([7]; i.v., 6: equivalent to 5.5 mg/kg oxaliplatin, V3: equivalent to 2.75 mg/kg oxaliplatin): well tolerated without signs of toxicity
